This note sets out measurements from US7041682B2, “NK1 antagonists” (Schering Corporation, priority 2002, dated 2006).

“And” between values parts separate entries of the source, which are not always exact repeats. Equal entries are not always repeated.

Chain of NK1 receptor (P25103 whole entry, species assumed): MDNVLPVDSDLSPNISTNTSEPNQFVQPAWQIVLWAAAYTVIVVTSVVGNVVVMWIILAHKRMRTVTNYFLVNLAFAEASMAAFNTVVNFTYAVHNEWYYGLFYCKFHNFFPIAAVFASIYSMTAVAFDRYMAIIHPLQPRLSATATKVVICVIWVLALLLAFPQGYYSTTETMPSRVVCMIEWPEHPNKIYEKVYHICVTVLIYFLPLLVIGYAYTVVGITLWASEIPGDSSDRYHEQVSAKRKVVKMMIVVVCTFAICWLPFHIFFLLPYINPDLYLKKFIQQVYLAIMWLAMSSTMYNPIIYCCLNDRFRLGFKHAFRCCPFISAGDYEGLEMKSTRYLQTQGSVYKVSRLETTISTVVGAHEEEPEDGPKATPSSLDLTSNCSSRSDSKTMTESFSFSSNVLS

This experiment concerns the target NK1 receptor (Homo sapiens, UniProt P25103). Put plainly: NK1 receptor binding: inhibition of the NK1 agonist Substance P, Ki from percent of maximum specific binding. The settings on record: inhibition constant from the concentration giving 50% inhibition of binding (Chang-Prusoff equation). The text has this: The in vitro and in vivo NK1, NK2 and NK3 activities of the compounds having the formula (I) can be determined by various procedures known in the art, such as a test for their ability to inhibit the activity of the NK1 agonist Substance P. The percent inhibition of neurokinin agonist activity is the difference between the percent of maximum specific binding (“MSB”) and 100%. The percent of MSB is defined by the following equation, wherein “dpm” represents “disintegrations per minute”:
[formula] The concentration at which the compound produces 50% inhibition of binding is then used to determine an inhibition constant (“Ki”) using the Chang-Prusoff equation. In vivo activity may be measured by inhibition of an agonist-induced foot tapping in a gerbil, as described in Science, 281, 1640–1695 (1998), which is herein incorporated by reference thereto.
Usually Ki stands for a measure of affinity in units of concentration, obtained from inhibition or displacement. The low end stands for a stronger hold on the target, the high end for a looser hold on the target. Take `O=C1CCCN1N1CCC(COC(CO)c2cc(C(F)(F)F)cc(C(F)(F)F)c2)(c2ccccc2)CC1` (centres unmarked) [Example 57]: the inhibition constant (Ki) lay within 0.3 to 3 nM.

With `C[C@@H](OCC1(c2ccccc2)CCN(N2CCCC2=O)CC1)c1cc(C(F)(F)F)cc(C(F)(F)F)c1` [Example 56], the Ki was 0.3 to 3 nM and ~0.3 nM. Turning to `O=C1CCCN1N1CCC(COCc2cc(C(F)(F)F)cc(C(F)(F)F)c2)(c2ccccc2)CC1` [Example 49], the inhibition constant (Ki) lay in the range of 0.3 to 3 nM.

Regarding `O=c1[nH]ncn1N1CCC(COCc2cc(C(F)(F)F)cc(C(F)(F)F)c2)(c2ccccc2)CC1` [Example 64], the Ki was in the range of 0.3 to 3 nM.

In the case of `O=C1NCCN1N1CCC(COCc2cc(C(F)(F)F)cc(C(F)(F)F)c2)(c2ccccc2)CC1` [Example 51], the Ki is 0.3 to 3 nM.
